Data from PMC8252068, “Biochemical Investigation of the Interaction of pICln, RioK1 and COPR5 with the PRMT5–MEP50 Complex” (Chembiochem, 2021).
Where a SMILES comes first, the peptide text is derived from it. Side-chain parts run from the residue outwards. The star is where a group is joined. FITC = O=C1OC2(c3ccc(O)cc3Oc3cc(O)ccc32)c2ccc(NC(=S)*)cc21; AEEA = NCCOCCOCC(=O)O

Tests used:
[1] = target: T1, native PRMT5–MEP50 complex (Homo sapiens, UniProt O14744+Q9BQA1); assay: Fluorescence polarisation direct binding assay, full-length PRMT5–MEP50; conditions: FP using the native PRMT5–MEP50 complex, FITC peptide 1 nM, pH 8.0, 30 min, 20-21 °C, n=3, n.b. = no binding; for Kd: read-out: K D (Table 2, peptides 1–16)
T1 construct: Full‐length PRMT5–MEP50; 6His-MBP with 3C site (N, cleaved yes); made in house; host or cells: HighFive insect cells (flashBAC baculovirus system)
Text: (§1) All proteins were expressed at the Protein Chemistry Facility (PCF) based in the MPI Dortmund.
(§2) For expression of the proteins, all constructs were subcloned into pOPIN vectors. […]
(§3) Expression of full-length human RioK1 tagged with 6NHis-3C and co-expression of full-length human PRMT5 (N-terminal 6His-MBP with 3C) with MEP50 (N-terminal 6His-TRX with 3C), and of TIM barrel (1-292 aa) with MEP50 (both N-terminally tagged with His-TRX with 3C cleavage site) was done using the Flash Bac Expression System (Oxford Expression Technologies, UK) with HighFive insect cells in Gibco Sf-900 III SFM medium. The cells were harvested by centrifugation and lysed.
(§4) All proteins were purified at the PCF (MPI Dortmund).
(§5) Protein purification was performed on HisTrap FF crude 5 ml Ni-based column, followed by the on-column treatment with 6His-tagged HRV-3C PreScission protease, or in case of the SUMO-tagged TIM barrel, with 6His-tagged SUMO protease. The cleaved proteins were then further purified using gel filtration chromatography with the HiLoad 26/60 Superdex 75 or 200 prep grade column. PRMT5 -MEP50, TIM-MEP50 and TIM barrel were stored in a buffer containing 50 mM HEPES, 250 mM NaCl, 1 mM TCEP with the pH adjusted to 8.0, whereas, pICln was stored in a buffer of 20 mM phosphate, 100 mM NaCl, 5 mM TCEP and pH of 7.5, whereas RioK1 was stored in a buffer of 50 mM Tris, 200 mM NaCl, 10% glycerol, 1 […]
(§6) Protein Labelling with Alexa 488
(§7) To a protein solution (ca. 1 mg/ml) in 0.2 M bicarbonate buffer with 1 mM TCEP at pH 8.3, was added 10 mM Alexa 488 NHS-ester in DMSO (8 equiv), and the mixture was kept on ice, in darkness, overnight. The protein was washed eight times with buffer (50 mM HEPES, 250 mM NaCl, 1 mM TCEP, 8.0 pH) using an Amicon® Ultra-0.5 mL spin filter. Protein concentration was then determined using the NanoDrop […]
Fluorescence Polarisation (FP)
The assay was performed in a buffer of 50 mM HEPES, 250 mM NaCl, 1 mM TCEP, 0.01% (v/v) Tween 20, pH 8.0, in black, 384 well-plates, with a total volume of 10 μl per well. The analysed, FITC labelled peptides, or Alexa488-labelled pICln or RioK1, were tested at a final concentration of 1 nM, and the appropriate unlabelled protein was titrated as two-fold dilution series. The plates were incubated at 20-21 °C for 30 min in case of FITC -labelled peptides or 1-2h in case of the Alexa488-labelled protein, and analysed on a plate reader using 485 nm excitation and 535 nm emission wavelength. The assay was performed in […]

[2] = target: T1, native PRMT5–MEP50 complex; assay: Competitive fluorescence polarisation binding assay with compound 11 as tracer; conditions: competitive FP; tracer compound 11 at 1 nM, PRMT5-MEP50 600 nM, unlabelled peptide titrated two-fold; pH 8.0; 30 min, 20-21 °C; n=3
Text: as §1, §2, §3, §4, §5, §6, §7
Competitive Binding Assay
The competitive binding assay was performed in a buffer of 50 mM HEPES, 250 mM NaCl, 1 mM TCEP, 0.01% (v/v) Tween 20, 8.0 pH, in black, 384 well-plates, with a total volume of 10 μl per well. The FITC labelled peptides were added at the final concentration of 1 nM, were mixed with PRMT5-MEP50 (at the final concentration of 600 nM), and the appropriate non-labelled peptide was titrated as two-fold dilution series. The plates were incubated at 20-21 °C for 30 min and analysed on a plate reader using 485 nm excitation and 535 nm emission wavelength. The experiment was performed in triplicates.

T1 sequence (O14744 whole entry): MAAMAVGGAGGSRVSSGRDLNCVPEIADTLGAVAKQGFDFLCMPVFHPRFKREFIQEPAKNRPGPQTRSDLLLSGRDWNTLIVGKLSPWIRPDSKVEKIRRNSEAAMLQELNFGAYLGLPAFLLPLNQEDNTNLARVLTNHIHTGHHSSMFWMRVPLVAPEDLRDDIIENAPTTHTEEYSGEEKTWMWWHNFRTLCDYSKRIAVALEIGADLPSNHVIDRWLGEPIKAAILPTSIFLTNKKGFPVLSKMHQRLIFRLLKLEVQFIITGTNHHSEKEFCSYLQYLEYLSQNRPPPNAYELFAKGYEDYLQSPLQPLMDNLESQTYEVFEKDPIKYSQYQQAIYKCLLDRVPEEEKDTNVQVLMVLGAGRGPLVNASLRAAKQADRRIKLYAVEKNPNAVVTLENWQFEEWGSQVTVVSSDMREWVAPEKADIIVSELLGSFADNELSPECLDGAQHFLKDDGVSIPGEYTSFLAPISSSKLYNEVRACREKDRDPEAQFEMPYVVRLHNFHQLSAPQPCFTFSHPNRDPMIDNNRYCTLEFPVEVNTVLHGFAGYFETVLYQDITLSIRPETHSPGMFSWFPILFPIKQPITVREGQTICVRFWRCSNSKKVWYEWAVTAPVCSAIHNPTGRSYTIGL
T1 sequence (Q9BQA1 whole entry partner): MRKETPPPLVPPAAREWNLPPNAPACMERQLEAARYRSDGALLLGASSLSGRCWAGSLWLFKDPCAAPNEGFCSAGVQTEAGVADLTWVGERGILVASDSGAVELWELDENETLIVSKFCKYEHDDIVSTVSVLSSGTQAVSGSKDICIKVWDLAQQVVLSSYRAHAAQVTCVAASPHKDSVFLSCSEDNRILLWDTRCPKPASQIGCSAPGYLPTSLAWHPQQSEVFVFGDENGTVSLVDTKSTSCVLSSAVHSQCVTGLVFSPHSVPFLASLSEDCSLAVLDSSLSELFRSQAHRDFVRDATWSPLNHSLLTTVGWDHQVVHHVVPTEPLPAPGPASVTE

| Molecule | Kd [1] | IC50 [2] | also measured |
| --- | --- | --- | --- |
| CC(C)[C@H](NC(=O)[C@H](CCCNC(=N)N)NC(=O)[C@H](CO)NC(=O)COCCOCCNC(=S)Nc1ccc2c(c1)C(=O)OC21c2ccc(O)cc2Oc2cc(O)ccc21)C(=O)N[C@H](C(=O)N1CCC[C@H]1C(=O)NCC(=O)N[C@@H](CCC(N)=O)C(=O)N[C@@H](Cc1ccccc1)C(=O)N[C@@H](CC(=O)O)C(=O)N[C@@H](CC(=O)O)C(N)=O)C(C)C [compound 5] ({FITC-AEEA}-SRVVPGQFDD-NH2) | > 5 µM | – | – |
| CC(=O)N[C@@H](CO)C(=O)N[C@@H](CCCNC(=N)N)C(=O)N[C@H](C(=O)N[C@H](C(=O)N1CCC[C@H]1C(=O)NCC(=O)N[C@@H](CCC(N)=O)C(=O)N[C@@H](Cc1ccccc1)C(=O)N[C@@H](CC(=O)O)C(=O)N[C@@H](CC(=O)O)C(=O)N[C@@H](C)C(=O)N[C@@H](CC(=O)O)C(=O)N[C@@H](CCCCNC(=O)COCCOCCNC(=S)Nc1ccc2c(c1)C(=O)OC21c2ccc(O)cc2Oc2cc(O)ccc21)C(N)=O)C(C)C)C(C)C [compound 7] (Ac-SRVVPGQFDDADK([AEEA-FITC])-NH2) | 0.716 ± 0.036 µM | – | – |
| CC(=O)N[C@H](C(=O)N1CCC[C@H]1C(=O)NCC(=O)N[C@@H](CCC(N)=O)C(=O)N[C@@H](Cc1ccccc1)C(=O)N[C@@H](CC(=O)O)C(=O)N[C@@H](CC(=O)O)C(=O)N[C@@H](C)C(=O)N[C@@H](CC(=O)O)C(=O)N[C@@H](CCCCNC(=O)COCCOCCNC(=S)Nc1ccc2c(c1)C(=O)OC21c2ccc(O)cc2Oc2cc(O)ccc21)C(N)=O)C(C)C [compound 8] (Ac-VPGQFDDADK([AEEA-FITC])-NH2) | 0.208 ± 0.074 µM | – | – |
| CC(=O)NCC(=O)N[C@@H](CCC(N)=O)C(=O)N[C@@H](Cc1ccccc1)C(=O)N[C@@H](CC(=O)O)C(=O)N[C@@H](CC(=O)O)C(=O)N[C@@H](C)C(=O)N[C@@H](CC(=O)O)C(=O)N[C@@H](CCCCNC(=O)COCCOCCNC(=S)Nc1ccc2c(c1)C(=O)OC21c2ccc(O)cc2Oc2cc(O)ccc21)C(N)=O [compound 9] (Ac-GQFDDADK([AEEA-FITC])-NH2) | > 5 µM | – | – |
| CC(C)[C@H](NC(=O)[C@H](CCCNC(=N)N)NC(=O)[C@H](CO)NC(=O)COCCOCCNC(=S)Nc1ccc2c(c1)C(=O)OC21c2ccc(O)cc2Oc2cc(O)ccc21)C(=O)N[C@H](C(=O)N1CCC[C@H]1C(=O)NCC(=O)N[C@@H](CCC(N)=O)C(=O)N[C@@H](Cc1ccccc1)C(=O)N[C@@H](CC(=O)O)C(=O)N[C@@H](CC(=O)O)C(=O)N[C@@H](C)C(=O)N[C@@H](CC(=O)O)C(=O)N[C@@H](CO)C(=O)N[C@@H](CO)C(=O)N[C@@H](CC(=O)O)C(N)=O)C(C)C [compound 11] ({FITC-AEEA}-SRVVPGQFDDADSSD-NH2) | 0.295 ± 0.011 µM | – | – |
| CSCC[C@H](NC(=O)[C@H](CC(C)C)NC(=O)[C@H](CC(C)C)NC(=O)COCCOCCNC(=S)Nc1ccc2c(c1)C(=O)OC21c2ccc(O)cc2Oc2cc(O)ccc21)C(=O)N[C@@H](CO)C(=O)N[C@@H](CCCNC(=N)N)C(=O)N[C@H](C(=O)N[C@H](C(=O)N1CCC[C@H]1C(=O)NCC(=O)N[C@@H](CCC(N)=O)C(=O)N[C@@H](Cc1ccccc1)C(=O)N[C@@H](CC(=O)O)C(=O)N[C@@H](CC(=O)O)C(=O)N[C@@H](C)C(=O)N[C@@H](CC(=O)O)C(N)=O)C(C)C)C(C)C [compound 12] ({FITC-AEEA}-LLMSRVVPGQFDDAD-NH2) | 0.192 ± 0.026 µM | – | – |
| CSCC[C@H](NC(=O)[C@H](CC(C)C)NC(=O)[C@H](CC(C)C)NC(=O)COCCOCCNC(=S)Nc1ccc2c(c1)C(=O)OC21c2ccc(O)cc2Oc2cc(O)ccc21)C(=O)N[C@@H](CO)C(=O)N[C@@H](CCCNC(=N)N)C(=O)N[C@H](C(=O)N[C@H](C(=O)N1CCC[C@H]1C(=O)NCC(=O)N[C@@H](CCC(N)=O)C(=O)N[C@@H](Cc1ccccc1)C(=O)N[C@@H](CC(=O)O)C(=O)N[C@@H](CC(=O)O)C(=O)N[C@@H](C)C(=O)N[C@@H](CC(=O)O)C(=O)N[C@@H](CO)C(=O)N[C@@H](CO)C(=O)N[C@@H](CC(=O)O)C(N)=O)C(C)C)C(C)C [compound 13] ({FITC-AEEA}-LLMSRVVPGQFDDADSSD-NH2) | 0.279 ± 0.041 µM | – | – |
| CC(C)[C@H](NC(=O)[C@H](CC(=O)O)NC(=O)[C@H](C)NC(=O)[C@H](CC(=O)O)NC(=O)[C@H](CCC(=O)O)NC(=O)[C@H](Cc1ccccc1)NC(=O)[C@H](CCC(N)=O)NC(=O)CNC(=O)[C@H](C)NC(=O)[C@@H](NC(=O)[C@@H](NC(=O)[C@@H]1CCCN1C(=O)[C@@H](NC(=O)COCCOCCNC(=S)Nc1ccc2c(c1)C(=O)OC21c2ccc(O)cc2Oc2cc(O)ccc21)[C@@H](C)O)[C@@H](C)O)C(C)C)C(=O)N[C@@H](CC(=O)O)C(=O)N[C@@H](Cc1c[nH]cn1)C(N)=O [compound 15] ({FITC-AEEA}-TPTVAGQFEDADVDH-NH2) | 0.52 ± 0.04 µM | – | – |
| CC(C)[C@H](NC(=O)COCCOCCNC(=S)Nc1ccc2c(c1)C(=O)OC21c2ccc(O)cc2Oc2cc(O)ccc21)C(=O)N[C@@H](CC(=O)O)C(=O)N[C@H](C(=O)N[C@H](C(=O)N1CCC[C@H]1C(=O)N[C@H](C(=O)N[C@H](C(=O)N[C@@H](C)C(=O)NCC(=O)N[C@@H](CCC(N)=O)C(=O)N[C@@H](Cc1ccccc1)C(=O)N[C@@H](CCC(=O)O)C(=O)N[C@@H](CC(=O)O)C(=O)N[C@@H](C)C(=O)N[C@@H](CC(=O)O)C(N)=O)C(C)C)[C@@H](C)O)[C@@H](C)O)[C@@H](C)O [compound 16] ({FITC-AEEA}-VDTTPTVAGQFEDAD-NH2) | 2.38 ± 0.817 µM | – | – |
| Ac-ARVVPGQFDDAD-NH2 [compound 37] | – | 0.9 ± 0.2 µM | – |
| Ac-MVFETGQFDDAED-NH2 [compound 25] | – | 3.4 ± 0.2 µM | – |
| Ac-SAVVPGQFDDAD-NH2 [compound 36] | – | 2.8 ± 0.5 µM | – |
| Ac-SRAVPGQFDDAD-NH2 [compound 35] | – | 4.8 ± 0.7 µM | – |
| Ac-SRVAPGQFDDAD-NH2 [compound 34] | – | 14 ± 3.4 µM | – |
| Ac-SRVVAGQFDDAD-NH2 [compound 33] | – | 9.9 ± 2.2 µM | – |
| Ac-SRVVPAQFDDAD-NH2 [compound 32] | – | 39 ± 8.5 µM | – |
| Ac-SRVVPGAFDDAD-NH2 [compound 31] | – | > 300 µM | – |
| Ac-SRVVPGQADDAD-NH2 [compound 30] | – | > 300 µM | – |
| Ac-SRVVPGQFADAD-NH2 [compound 29] | – | 6.4 ± 0.3 µM | – |
| Ac-SRVVPGQFDAAD-NH2 [compound 28] | – | 97 ± 17 µM | – |
| Ac-SRVVPGQFDDAA-NH2 [compound 27] | – | 6.2 ± 2.2 µM | – |
| Ac-SRVVPGQFDDAD-NH2 [compound 26] | – | 6 ± 0.7 µM | – |
| Ac-SRVVPGQFDDADSSD-NH2 [compound 23] | – | 1.5 ± 0.4 µM | – |
| Ac-TPTVAGQFEDAD-NH2 [compound 24] | – | 14.6 ± 0.9 µM | – |
| Ac‐FDDADK(O2Oc‐Fitc)‐NH2 [compound 10, N-terminally truncated, C-terminally labelled RioK1 derived peptide] | – | – | K D (Table 2, peptides 1–16) [1]: n.b. |
| Fitc‐O2Oc‐SRVVPGQF‐NH2 [compound 6, C-terminally truncated RioK1 derived Fitc-labelled peptide] | – | – | K D (Table 2, peptides 1–16) [1]: n.b. |
| Fitc‐O2Oc‐TPTVAGQF‐NH2 [compound 14, C-terminally truncated pICln derived Fitc-labelled peptide] | – | – | K D (Table 2, peptides 1–16) [1]: n.b. |
